Experimental data reported in US20260200902A1, “CRYSTALLINE FORMS OF 7-CHLORO-2-(4-(3-METHOXYAZETIDIN-1-YL)CYCLOHEXYL)-2,4- DIMETHYL-N-((6-METHYL-4-(METHYLTHIO)-2-OXO-1,2-DIHYDROPYRIDIN-3-YL)METHYL)BENZO [D][1,3]DIOXOLE-5-CARBOXAMIDE” (Constellation Pharmaceuticals, Inc., priority 2019, published 2026).
Entries after “also recorded” stand apart in the source; their conditions may differ.

Experiments:
Assay type in all cases: physicochemical
[1] = Relative stability of crystalline forms (polymorph screening and competitive slurry experiments); conditions: Form 1 versus Form 2
Protocol: The amorphous form of Compound 1 samples with different purities, one with 95.2% purity (30 mg) and another with 97.6% purity (20 mg), were each suspended or dissolved in 10-30 vol of a given solvent at RT. After 5 m n equilibration at RT, all samples (solutions and suspensions) were heated to 50° C. for 10 minutes and the resulting samples were treated as follows: Suspensions were matured between 60 and 5 FC for 72 hrs (4 hrs at each temperature). Solutions were cooled from 50 to 5° C. at 0.1° C./min and maintained at 5° C. for 72 hrs. If no solid was obtained, the solutions were allowed to evaporate at RT. All the recovered solids were analyzed by XRPD and subsequently by the appropriate techniques. See Tables 1-3 for screening procedures and analytical results.

[2] = Static stability storage at elevated RH (5 days), XRPD and HPLC; conditions: for Solid form by XRPD after storage: stored for 5 days at elevated RH conditions
[3] = Gravimetric vapour sorption (GVS) analysis; conditions: for XRPD post GVS (solid form): after GVS analysis

Row | Relative stability of crystalline form [1] | Static stability, HPLC ([2]; 25° C./97% RH (5 days)) [%] | Static stability, HPLC ([2]; 40° C./75% RH (5 days)) [%] | Solid form by XRPD after storage [2] | Hygroscopicity by GVS analysis [3] | SMILES | Static stability, XRPD ([2]; 25° C./97% RH (5 days)) | Static stability, XRPD ([2]; 40° C./75% RH (5 days)) | XRPD post GVS (solid form) [3]
1 | more stable than Form 2 | 96.8 | 96.5 | remained Form 1 | slightly hygroscopic | COC1CN(C2CCC(C3(C)Oc4c(Cl)cc(C(=O)NCc5c(SC)cc(C)[nH]c5=O)c(C)c4O3)CC2)C1 (centres unmarked) [Form 1, 7-chloro-2-(4-(3-methoxyazetidin-1-yl)cyclohexyl)-2,4-dimethyl-N-((6-methyl-4-(methylthio)-2-oxo-1,2-dihydropyridin-3-yl)methyl)benzo[d][1,3]dioxole-5-carboxamide] | XRPD: Slight reduction in crystallinity,; also recorded: remained pattern 1 | XRPD: Slight reduction in crystallinity,; also recorded: remained pattern 1 | remained Form 1; also recorded: showed the material remained Pattern 1
2 | less stable crystalline form than Form 1 |  |  | became amorphous |  | COC1CN(C2CCC(C3(C)Oc4c(Cl)cc(C(=O)NCc5c(SC)cc(C)[nH]c5=O)c(C)c4O3)CC2)C1 (centres unmarked) [Form 2, 7-chloro-2-(4-(3-methoxyazetidin-1-yl)cyclohexyl)-2,4-dimethyl-N-((6-methyl-4-(methylthio)-2-oxo-1,2-dihydropyridin-3-yl)methyl)benzo[d][1,3]dioxole-5-carboxamide] |  |  | became amorphous
